PubChem BioAssay AID2060502 (Molecular Pharmacology Branch, DTP, NCI, 2025)
Several values for one entry are separate records, joined by “and”; a condition that tells them apart may be missing. Equal values may be shown once.

System: 885724-159-R-J1-PDC complex spheroid viability
Assay: Anticancer human tumor 885724-159-R-J1-PDC patient-derived pancreatic adenocarcinoma cell line growth inhibition [GQUAD]
Settings: for viability, T/C: stronger effect = lower value
Description: DNA G-quadruplex Stabilizer Agents in Combinations in Complex Spheroids
A high-throughput screen of multi-cell type tumor spheroids was designed to identify active combinations of DNA G-quadruplex stabilizer agents and targeted small molecules. Complex spheroids include a stromal component modeled by human endothelial cells (HUVEC) and fibroblasts modeled by human mesenchymal stem cells (MSCs). The concentration ranges selected for each drug and investigational agent were based upon clinically achievable concentrations if the clinical Cmax of the agent was known.
Compounds. The drugs and investigational agents: pidnarulex (CX-5461; NSC782164), APTO-253 (NSC789042), BRACO-19 (NSC847499), peposertib (NSC802822), ceralasertib (NSC780249), elimusertib (NSC800525), camonsertib (NSC841442), AZD-1390 (NSC803789), olaparib (NSC753686), talazoparib (NSC767125), ART-558 (NSC835418), sotorasib (NSC818433), MRTX-1133 (NSC836407), SN-38 (NSC673596), topotecan (NSC609699), etoposide (NSC141540), doxorubicin (NSC123127), gemcitabine (NSC613327), 5-fluorouracil (NSC19893), paclitaxel (NSC125973), vemurafenib (NSC761431), panobinostat (NSC761190), R-306465 (JNJ-16241199; NSC773264), adavosertib (NSC754352), TP-3654 (NSC805149), carboplatin (NSC241240), KSQ-4279 (NSC840948), and staurosporine (NSC755774) were obtained from the National Cancer Institute (NCI) Developmental Therapeutics Program Chemical Repository (34). The FDA-approved anticancer drug set is available from the NCI Developmental Therapeutics Program. […] The stock solutions were prepared in dimethyl sulfoxide (DMSO, Sigma-Aldrich, St. Louis, MO, cat. D2650) at 800-fold the tested concentration and stored at -70 degrees C prior to their use. All drugs and investigational agents were tested over a range starting from a high concentration at or near the clinical Cmax and decreasing in half-log increments. If the clinical Cmax for an agent had not been determined, the highest concentration tested was 10 microM.
2.3 Cell Culture. All cells were maintained in an incubator at 37 degrees C and 5% CO2 with 95% humidity. The PDC lines were cultured according to standard operating procedures established by the NCI PDMR. All PDCs were thawed and cultured in Matrigel-coated flasks prepared with a working solution of 1X Ham's F-12 nutrient mix, without supplementation (Invitrogen, cat. 11765054), 100 U/mL penicillin-streptomycin (Invitrogen, cat. 15140122), and 2.5% Matrigel (Corning Inc., cat. 354248) for the first three passages. The 857933-349-R-J2-PDC line was cultured in 6C/Colon 1B media, which includes advanced DMEM/F-12 (Thermo Fisher Scientific, cat. 12634028), 10 mM HEPES (Thermo Fisher Scientific, cat. 15630080), 1X GlutaMAX supplement (Thermo Fisher Scientific, cat. 35050061), 0.1 mg/mL primocin (InvivoGen, cat. ant-pm-2), 10% defined fetal bovine serum, heat inactivated (HyClone Laboratories Inc., cat. SH30070.03HI), 50% L-WRN conditioned media (ATCC, cat. CRL-3276), 1.25 mM N-Acetyl-L-cysteine (Sigma-Aldrich, cat. A9165), 10 mM nicotinamide (Sigma-Aldrich, cat. N0636), 1X B-27 supplement (Thermo Fisher Scientific, cat. 17504044), 1X N-2 supplement (Thermo Fisher Scientific, cat. 17502048), 10 microM Y-27632 dihydrochloride (Tocris Bioscience, cat. 1254), and 50 ng/mL human EGF recombinant protein (Thermo Fisher Scientific, cat. PHG0311). The 485176-168-R4-J1-PDC line was cultured in Panc media, which includes all 6C/Colon 1B media components plus 100 ng/mL human FGF-10 (Thermo Fisher Scientific, cat. 100-26), 500 nM SB-431542 (Selleckchem, cat. S1067), and gastrin (Tocris, cat. 3006).
[…]

[1] = curve of first compound, second compound 0.0316 µM
[2] = curve of first compound, second compound 0.1 µM
[3] = curve of first compound, second compound 0.316 µM
[4] = curve of first compound, second compound 1 µM
[5] = curve of first compound, second compound 3.16 µM
[6] = curve of first compound, second compound 10 µM
[7] = second compound 0.0316 µM, first compound 0.0316 µM
[8] = second compound 0.0316 µM, first compound 0.1 µM
[9] = second compound 0.0316 µM, first compound 0.316 µM
[10] = second compound 0.0316 µM, first compound 1 µM
[11] = second compound 0.0316 µM, first compound 3.16 µM
[12] = second compound 0.0316 µM, first compound 10 µM
[13] = second compound 0.1 µM, first compound 0.0316 µM
[14] = second compound 0.1 µM, first compound 0.1 µM
[15] = second compound 0.1 µM, first compound 0.316 µM
[16] = second compound 0.1 µM, first compound 1 µM
[17] = second compound 0.1 µM, first compound 3.16 µM
[18] = second compound 0.1 µM, first compound 10 µM
[19] = second compound 0.316 µM, first compound 0.0316 µM
[20] = second compound 0.316 µM, first compound 0.1 µM
[21] = second compound 0.316 µM, first compound 0.316 µM
[22] = second compound 0.316 µM, first compound 1 µM
[23] = second compound 0.316 µM, first compound 3.16 µM
[24] = second compound 0.316 µM, first compound 10 µM
[25] = second compound 1 µM, first compound 0.0316 µM
[26] = second compound 1 µM, first compound 0.1 µM
[27] = second compound 1 µM, first compound 0.316 µM
[28] = second compound 1 µM, first compound 1 µM
[29] = second compound 1 µM, first compound 3.16 µM
[30] = second compound 1 µM, first compound 10 µM
[31] = second compound 3.16 µM, first compound 0.0316 µM
[32] = second compound 3.16 µM, first compound 0.1 µM
[33] = second compound 3.16 µM, first compound 0.316 µM
[34] = second compound 3.16 µM, first compound 1 µM
[35] = second compound 3.16 µM, first compound 3.16 µM
[36] = second compound 3.16 µM, first compound 10 µM
[37] = second compound 10 µM, first compound 0.0316 µM
[38] = second compound 10 µM, first compound 0.1 µM
[39] = second compound 10 µM, first compound 0.316 µM
[40] = second compound 10 µM, first compound 1 µM
[41] = second compound 10 µM, first compound 3.16 µM
[42] = second compound 10 µM, first compound 10 µM
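Further: spheroids exposed to agents for seven days before readout.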
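Wherever viability, T/C is given: percent of vehicle control viability where 100% = DMSO wells.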

Q: Which results are given for `C=CCn1c(=O)c2cnc(Nc3ccc(N4CCN(C)CC4)cc3)nc2n1-c1cccc(C(C)(C)O)n1` + Cc1cnc(CNC(=O)c2c(=O)c3ccc(N4CCCN(C)CC4)nc3n3c2sc2ccccc23)cn1?
A: IC50 [1]: > 10000 nM; IC50 [2]: > 10000 nM; IC50 [3]: > 10000 nM; IC50 [4]: > 10000 nM; IC50 [5]: > 10000 nM; IC50 [6]: > 10000 nM; viability, T/C [7]: 105%; viability, T/C [8]: 106%; viability, T/C [9]: 100%; viability, T/C [10]: 97.1%; viability, T/C [11]: 78.4%; viability, T/C [12]: 91.5%; viability, T/C [13]: 109%; viability, T/C [14]: 132%; viability, T/C [15]: 99.7%; viability, T/C [16]: 93.9%; viability, T/C [17]: 85.9%; viability, T/C [18]: 83.3%; viability, T/C [19]: 106%; viability, T/C [20]: 102%; viability, T/C [21]: 100%; viability, T/C [22]: 91.1%; viability, T/C [23]: 89.9%; viability, T/C [24]: 90%; viability, T/C [25]: 100%; viability, T/C [26]: 78.2%; viability, T/C [27]: 82.8%; viability, T/C [28]: 75.3%; viability, T/C [29]: 79.2%; viability, T/C [30]: 96.8%; viability, T/C [31]: 73.1%; viability, T/C [32]: 65.4%; viability, T/C [33]: 69.8%; viability, T/C [34]: 67.8%; viability, T/C [35]: 71.5%; viability, T/C [36]: 69.2%; viability, T/C [37]: 58.9%; viability, T/C [38]: 70.4%; viability, T/C [39]: 56.4%; viability, T/C [40]: 58.3%; viability, T/C [41]: 69.8%; viability, T/C [42]: 62%

Q: `CC1COCCN1c1cc(C2(O)CC3CCC(C2)O3)c2cnn(-c3ccn[nH]3)c2n1` (stereo unspecified) + Cc1cnc(CNC(=O)c2c(=O)c3ccc(N4CCCN(C)CC4)nc3n3c2sc2ccccc23)cn1 was tested. Which IC50 [1] did it give?
A: 1120 nM

Q: What about the IC50 [2] of the same compound?
A: 1140 nM

Q: And the IC50 [3]?
A: 986 nM

Q: What about the IC50 [4] of the same compound?
A: 293 nM

Q: What about the IC50 [5] of the same compound?
A: 184 nM

Q: And the IC50 [6]?
A: 196 nM

Q: What about the viability, T/C [7] of the same compound?
A: 96.9%

Q: And the viability, T/C [8]?
A: 71%

Q: And the viability, T/C [9]?
A: 63.3%

Q: What about the viability, T/C [10] of the same compound?
A: 52.9%

Q: What about the viability, T/C [11] of the same compound?
A: 42.7%

Q: And the viability, T/C [12]?
A: 30.8%

Q: And the viability, T/C [13]?
A: 91.1%

Q: And the viability, T/C [14]?
A: 83.7%

Q: What about the viability, T/C [15] of the same compound?
A: 68.3%

Q: What about the viability, T/C [16] of the same compound?
A: 51.4%

Q: What about the viability, T/C [17] of the same compound?
A: 37.8%

Q: What about the viability, T/C [18] of the same compound?
A: 27.9%

Q: And the viability, T/C [19]?
A: 83.8%

Q: And the viability, T/C [20]?
A: 81.5%

Q: What about the viability, T/C [21] of the same compound?
A: 68.5%

Q: And the viability, T/C [22]?
A: 48%

Q: What about the viability, T/C [23] of the same compound?
A: 35%

Q: And the viability, T/C [24]?
A: 22.4%

Q: And the viability, T/C [25]?
A: 79.7%

Q: And the viability, T/C [26]?
A: 59.3%

Q: And the viability, T/C [27]?
A: 48.7%

Q: And the viability, T/C [28]?
A: 39.1%

Q: And the viability, T/C [29]?
A: 27.5%

Q: What about the viability, T/C [30] of the same compound?
A: 17.9%

Q: What about the viability, T/C [31] of the same compound?
A: 72.1%

Q: And the viability, T/C [32]?
A: 56.5%

Q: What about the viability, T/C [33] of the same compound?
A: 43.8%

Q: And the viability, T/C [34]?
A: 32.4%

Q: What about the viability, T/C [35] of the same compound?
A: 19%

Q: And the viability, T/C [36]?
A: 13.8%

Q: And the viability, T/C [37]?
A: 61.5%

Q: What about the viability, T/C [38] of the same compound?
A: 59.2%

Q: What about the viability, T/C [39] of the same compound?
A: 43.4%

Q: What about the viability, T/C [40] of the same compound?
A: 30.1%

Q: And the viability, T/C [41]?
A: 19.1%

Q: And the viability, T/C [42]?
A: 12.4%

Q: How did the viability, T/C (compound 0.0316 µM) turn out when `CC1COCCN1c1cc(C2(O)CC3CCC(C2)O3)c2cnn(-c3ccn[nH]3)c2n1` (stereo unspecified) was run?
A: 86.4% and 103% and 91.5%

Q: And the viability, T/C (compound 0.1 µM)?
A: 85.4% and 80.9% and 79.5%

Q: And the viability, T/C (compound 0.316 µM)?
A: 74.2% and 74.5% and 71.8%

Q: What about the viability, T/C (compound 1 µM) of the same compound?
A: 48.6% and 56% and 53.5%

Q: And the viability, T/C (compound 3.16 µM)?
A: 37.3% and 46.2% and 47.5%

Q: What about the viability, T/C (compound 10 µM) of the same compound?
A: 28.3% and 38.1% and 36.4%

Q: What about the IC50 (curve of compound) of the same compound?
A: 1010 nM and 2210 nM and 1990 nM
